Measurements from US20060247255A1, “Method for preparing a stable gatifloxacin composition” (priority 2005, published 2006).

Experiment: Polymorphic conversion testing after compression at 1 ton pressure and storage in different environments (DSC/FT-IR)
Assay type: physicochemical
Experimental: Polymorphic Conversion Testing after Compression at 1 Ton Pressure and Storage in Different Environments.
Compacts of glatifloxacin anhydrous and gatifloxacin hemihydrate were prepared and placed in chambers that were equilibrated as follows:
(i) 25° C. and 21% relative humidity (RH);
(iii) 40° C. and 21% RH; and
Compacts of glatifloxacin anhydrous and gatifloxacin hemihydrate were evaluated by DSC and FT-IR immediately after compression, after 2 days of exposure under the above conditions, and after 6 or 7 days of exposure.
Conversion is identified as a change in DSC thermogram or FT-IR pattern.

[1] = 6 or 7 Days at 25° C. and 21% RH
[2] = 6 or 7 Days at 25° C. and 75% RH
[3] = 6 or 7 Days at 40° C. and 21% RH
[4] = 6 or 7 Days at 40° C. and 75% RH

SMILES: COc1c(N2CCNC(C)C2)c(F)cc2c(=O)c(C(=O)O)cn(C3CC3)c12 (stereo not shown) [Gatifloxacin Anhydrous, 1-cyclopropyl-6-fluoro-1,4-dihydro-8-methoxy-7-(3-methyl-1-piperazinyl)-4-oxo-3-quinolinecarboxylic acid]
- Conversion (change in DSC thermogram) (2 Days at 25° C. and 21% RH): No/No
- Conversion (change in FT-IR pattern) (2 Days at 25° C. and 21% RH): No/No
- Conversion (change in DSC thermogram) (2 Days at 25° C. and 75% RH): No/No
- Conversion (change in FT-IR pattern) (2 Days at 25° C. and 75% RH): No/No
- Conversion (change in DSC thermogram) (2 Days at 40° C. and 21% RH): No/No
- Conversion (change in FT-IR pattern) (2 Days at 40° C. and 21% RH): No/No
- Conversion (change in DSC thermogram) (2 Days at 40° C. and 75% RH): Yes/Yes
- Conversion (change in FT-IR pattern) (2 Days at 40° C. and 75% RH): Yes/Yes
- Conversion (change in DSC thermogram) [1]: No/No
- Conversion (change in FT-IR pattern) [1]: No/No
- Conversion (change in DSC thermogram) [2]: Yes/Yes
- Conversion (change in FT-IR pattern) [2]: Yes/Yes
- Conversion (change in DSC thermogram) [3]: No/No
- Conversion (change in FT-IR pattern) [3]: No/No
- Physical stability [3]: did not effect
- Conversion (change in DSC thermogram) [4]: Yes/Yes
- Conversion (change in FT-IR pattern) [4]: Yes/Yes
- Conversion (change in DSC thermogram) (Immediately after compression): No/No
- Conversion (change in FT-IR pattern) (Immediately after compression): No/No
- Physical stability (approximately 75% RH for a period of 2 days): deleteriously effects the physical stability

SMILES: COc1c(N2CCNC(C)C2)c(F)cc2c(=O)c(C(=O)O)cn(C3CC3)c12 (stereo not shown) [Gatifloxacin Hemihydrate, 1-cyclopropyl-6-fluoro-1,4-dihydro-8-methoxy-7-(3-methyl-1-piperazinyl)-4-oxo-3-quinolinecarboxylic acid]
- Conversion (change in DSC thermogram) (2 Days at 25° C. and 21% RH): No/No
- Conversion (change in FT-IR pattern) (2 Days at 25° C. and 21% RH): No/No
- Conversion (change in DSC thermogram) (2 Days at 25° C. and 75% RH): No/No
- Conversion (change in FT-IR pattern) (2 Days at 25° C. and 75% RH): No/No
- Conversion (change in DSC thermogram) (2 Days at 40° C. and 21% RH): No/No
- Conversion (change in FT-IR pattern) (2 Days at 40° C. and 21% RH): No/No
- Conversion (change in DSC thermogram) (2 Days at 40° C. and 75% RH): No/No
- Conversion (change in FT-IR pattern) (2 Days at 40° C. and 75% RH): No/No
- Conversion (change in DSC thermogram) [1]: No/No
- Conversion (change in FT-IR pattern) [1]: No/No
- Conversion (change in DSC thermogram) [2]: Yes
- Conversion (change in FT-IR pattern) [2]: No
- Conversion (change in DSC thermogram) [3]: No/No
- Conversion (change in FT-IR pattern) [3]: No/No
- Physical stability [3]: did not effect
- Conversion (change in DSC thermogram) [4]: Yes/Yes
- Conversion (change in FT-IR pattern) [4]: Yes/Yes
- Conversion (change in DSC thermogram) (Immediately after compression): No/No
- Conversion (change in FT-IR pattern) (Immediately after compression): No/No
- Physical stability (approximately 75% RH for a period of at least 6 days): deleteriously effects the physical stability
